# Measurements from paper PMC5756575, “In Vitro Biotransformation, Safety, and Chemopreventive Action of Novel 8-Methoxy-Purine-2,6-Dione Derivatives” (Applied Biochemistry and Biotechnology, 2017).
# Read-outs that look alike come from different tables or passages of the source.
# How the values were obtained:
# [1] = tested on: Cunninghamella blakesleeana 1908 DMS; assay: Cunninghamella biotransformation assay, C. blakesleeana; format: in vitro ADME; conditions: 7-day incubation; for % of compound/metabolite in C. blakesleeana: 0.5 mg/mL, LC-MS/MS; for % of tested (parental) compound metabolized at the end of experiment: C. blakesleeana
# Protocol: (§1) Three different strains of Cunninghamella were used: Cunninghamella echinulata NRRL 1384, Cunninghamella blakesleeana 1908 DMS, and Cunninghamella elegans 1906 DMS. The first was provided by Dr. A.J. Carnell (University of Liverpool, UK), whereas the two remaining were purchased from Deutsche Sammlung von Mikroorganismen und Zellkulturen GmbH (DMSZ, Braunschweig, Germany).
# (§2) Cunninghamella strains were cultivated on solid potato dextrose agar (PDA) plates at 28 °C. After 4 days, a liquid fermentation basal medium was prepared by the addition of 6 g of D-glucose, 1.5 g of NaCl, 1.5 g of yeast extract from Saccharomyces cerevisiae, and 1.5 g of K2HPO4 to 300 mL of distilled water. Aliquots of 24.5 mL of medium were inoculated with 300 μL of suspension of fungal spores obtained after wetting colonies in PDA. The fungi were incubated with shaking until the formation of spherical clumps.
# (§3) Compounds 2–4 were evaluated in this experiment. Once microorganisms formed spherical clumps in the preliminary incubation, the corresponding tested compound was added to the broth and the mixture was incubated for 7 days. Two control experiments were also performed, in the absence of compound and fungus, respectively. Biotransformation progress was monitored by TLC and by liquid chromatography electrospray ionization-tandem mass spectrometry (LC-MS/MS). Monitoring was performed at four different incubation times: 30 min, 3 days, 5 days, and 7 days.
# (§4) To analyze metabolites in LC-MS/MS, an aliquot of 500 μL of filtered sample was taken and extracted with 500 μL of dichloromethane. The organic fraction was dried with sodium sulfate, filtered, and evaporated. The obtained residue was analyzed in LC-MS/MS. At the end of experiment, all the remaining medium was extracted with 25 mL of dichloromethane after separating the fungal clumps by filtration over cellulose filters.
# (§5) Agilent 1100 HPLC system (Agilent Technologies, Waldbronn, Germany) equipped with a Xbridge™ C18 analytical column (2.1 × 30 mm, […]; Waters, Dublin, Ireland) was used in the chromatographic separation of LC-MS/MS analysis. An elution gradient of acetonitrile and water, with 0.1% of formic acid, was used as a mobile phase. MS spectra were taken at Applied Biosystems MDS Sciex API 200 triple quadrupole mass analyzer (Concord, Ontario, Canada) with an electrospray ionization (ESI) interface between HPLC and MS.
# [2] = tested on: Cunninghamella echinulata NRRL 1384; assay: Cunninghamella biotransformation assay, C. echinulata; format: in vitro ADME; conditions: 7-day incubation; for % of compound/metabolite in C. echinulata: 0.5 mg/mL, LC-MS/MS; for % of tested (parental) compound metabolized at the end of experiment: C. echinulata
# Protocol: as §1, §2, §3, §4, §5
# Cunninghamella strains = assay: Cunninghamella biotransformation assay, three strains together and blank without fungus; format: in vitro ADME; conditions: blank: control in the absence of fungus, 7-day incubation
# Protocol: as §1, §2, §3, §4
# Agilent 1100 HPLC system (Agilent Technologies, Waldbronn, Germany) equipped with a Xbridge™ C18 analytical column (2.1 × 30 mm, […]; Waters, Dublin, Ireland) was used in the chromatographic separation of LC-MS/MS analysis. […]
# Vibrio harveyi BB7M = conditions: 40 ng/mL; for Number of revertants per plate, Mean ± SD: mutagenicity
# Protocol: (§6) From them, 0.2 mM working solutions were prepared by dilution with water. […] Working solutions were prepared by 1:100 dilution of stock solution in water, and final compound concentration assayed was 40 ng/mL.
# (§7) Four Vibrio harveyi strains were used in this study: a wild-type BB7 (naturally found in the Baltic Sea) and three genetically modified strains, namely BB7M (obtained by the introduction of pAB1273 plasmid containing the genes mucA and mucB to enhance the error-prone DNA repair), BB7X (hypersensitive to UV radiation after genetic modification with Tn5TpMCS), and BB7XM (containing the two abovementioned modifications). These strains were kindly provided by Prof. G. Węgrzyn (Department of Molecular Biology, University of Gdańsk, Poland).
# (§8) It causes point mutations at the genome as it induces G:C → A:T transitions in Vibrio harveyi strains and in other bacteria such as Escherichia coli and S. typhimurium. […] Next, its working solution was prepared in sterile water, being 40 ng/mL its final concentration.
# (§9) To perform the V. harveyi mutagenicity test, 10 μL of a working solution of the tested compound (100 μg/mL) were added to V. harveyi bacterial culture (OD600 = 0.1) in NaCl-containing BOSS liquid medium, being 40 ng/mL the final concentration of the tested compound. […] Then, an inoculum containing 5 × 10^6 cells was added to solid BOSS agar plate supplemented with neomycin sulfate at a final concentration of 100 μg/mL. Samples were left incubating 48 h at 30 °C, and revertant colonies were counted manually.
# Vibrio harveyi BB7X [3] = conditions: 40 ng/mL; for MI (mutagenicity index): mutagenic if MI above 2.0; for Number of revertants per plate, Mean ± SD: mutagenicity
# Protocol: as §6, §7, §8, §9
# Vibrio harveyi BB7 [4] = conditions: BB7, 40 ng/mL; for MI (mutagenicity index): mutagenic if MI above 2.0; for Number of revertants per plate, Mean ± SD: mutagenicity
# Protocol: as §6, §7, §8, §9
# Vibrio harveyi BB7XM [5] = assay: Vibrio harveyi mutagenicity assay, BB7XM; format: cell-based; conditions: 40 ng/mL; for MI (mutagenicity index): mutagenic if MI above 2.0; for Number of revertants per plate, Mean ± SD: mutagenicity
# Protocol: as §6, §7, §8, §9
# Vibrio harveyi BB7 [6] = assay: Vibrio harveyi antimutagenicity assay against NQNO, BB7; format: cell-based; conditions: for % inhibition of NQNO mutagenicity / Number of revertants per plate, Mean ± SD: BB7, compound 40 ng/mL + NQNO 40 ng/mL; for Number of revertants per plate, Mean ± SD: antimutagenicity, NQNO line = NQNO as a single compound; for chemopreventive (antimutagenic) effect, class: wild BB7 strain, against NQNO
# Description: as §7, §8
# (§10) Procedure followed in the V. harveyi antimutagenicity assay was similar to the mutagenicity method described before. […] The results were expressed as the inhibition percentage of mutagenic effect, which was calculated with the formula: 100 − [(R 1/R 2) × 100], where R 1 is the number of revertants per plate in the presence of both mutagen and tested substance, and R 2 is the number of revertants per plate in the presence of mutagen. […] S. typhimurium antimutagenicity assay was based on similar assumptions as the V. harveyi antimutagenicity test. In this case, the chemopreventive activity was determined at two concentrations of a tested compounds and a standard mutagen, i.e., 40 and 500 ng/mL.
# Vibrio harveyi BB7X [7] = assay: Vibrio harveyi antimutagenicity assay against NQNO, BB7X; format: cell-based; conditions: compound 40 ng/mL + NQNO 40 ng/mL; for Number of revertants per plate, Mean ± SD: antimutagenicity, NQNO line = NQNO as a single compound
# Description: as §7, §8, §10
# Vibrio harveyi BB7XM [8] = format: cell-based; conditions: compound 40 ng/mL + NQNO 40 ng/mL; for Number of revertants per plate, Mean ± SD: antimutagenicity, NQNO line = NQNO as a single compound
# Description: as §7, §8, §10
# [9] = tested on: Salmonella typhimurium TA100; assay: S. typhimurium antimutagenicity assay against NQNO; format: cell-based; conditions: for Number of revertants per plate, Mean ± SD: antimutagenicity, NQNO line = NQNO as a single compound
# Description: In the Ames test, Salmonella typhimurium TA100 strain was used. This strain has a base-pair substitution that can be reverted by mutations at GC pairs. In addition, it contains mutations at uvrB-bio and rfa genes to eliminate excision repair mechanisms and to make the bacteria more permeable to chemicals, respectively. Finally, TA100 also includes pKM101 plasmid, which enhances both chemical and UV-induced mutagenesis via an increase in the error-prone recombinational DNA repair pathway. TA100 strain of S. typhimurium was provided by Dr. T. Nohmi (Division of Genetics and Mutagenesis, National Institute of Hygienic Sciences, Tokyo, Japan). V. harveyi and S. typhimurium bacterial cultures were maintained at 30 and 37 °C, respectively.
# as §8, §10
# [10] = TA100, compound and NQNO 40 ng/mL
# [11] = TA100, compound and NQNO 500 ng/mL
Structure (SMILES),% of compound/metabolite in C. blakesleeana [1],% of tested (parental) compound metabolized at the end of experiment [1],% of compound/metabolite in C. echinulata [2],% of tested (parental) compound metabolized at the end of experiment [2],% of compound/metabolite in blank (Cunninghamella strains),"Number of revertants per plate, Mean ± SD (Vibrio harveyi BB7M)",MI (mutagenicity index) (Vibrio harveyi BB7X [3]),"Number of revertants per plate, Mean ± SD (Vibrio harveyi BB7X [3])",MI (mutagenicity index) (Vibrio harveyi BB7 [4]),"Number of revertants per plate, Mean ± SD (Vibrio harveyi BB7 [4])",MI (mutagenicity index) (Vibrio harveyi BB7XM [5]),"Number of revertants per plate, Mean ± SD (Vibrio harveyi BB7XM [5])",% inhibition of NQNO mutagenicity (Vibrio harveyi BB7 [6]),"Number of revertants per plate, Mean ± SD (Vibrio harveyi BB7 [6])","chemopreventive (antimutagenic) effect, class (Vibrio harveyi BB7 [6])","Number of revertants per plate, Mean ± SD (Vibrio harveyi BB7X [7])",% inhibition of NQNO mutagenicity (Vibrio harveyi BB7X [7]),"Number of revertants per plate, Mean ± SD (Vibrio harveyi BB7XM [8])",% inhibition of NQNO mutagenicity (Vibrio harveyi BB7XM [8]),"% inhibition of NQNO mutagenicity [9, 10]",also measured
"COc1nc2c(c(=O)n(C)c(=O)n2C)n1CCCC(=O)NCc1ccccc1 [Compound 3, N-benzyl-4-(8-methoxy-1,3-dimethyl-2,6-dioxo-purin-7-yl)butanamide]",95.4%,4.6%,92.4%,7.6%,100.0%,35 ± 5,1.6,35 ± 4,1.4,18 ± 6,1.1,35 ± 7,29%,38 ± 9,moderate or a close to moderate,45 ± 9,58%,65 ± 7,15%,96%,"MI (mutagenicity index) (Vibrio harveyi BB7M; mutagenic if MI above 2.0): 1.3; % inhibition of NQNO mutagenicity [9, 11]: 92%; Number of revertants per plate, Mean ± SD [9, 10]: 4 ± 2; Number of revertants per plate, Mean ± SD [9, 11]: 8 ± 3"
"COc1nc2c(c(=O)n(C)c(=O)n2C)n1CCCC(=O)N1CCN(c2ccccc2)CC1 [Compound 4, 8-methoxy-1,3-dimethyl-7-[4-oxo-4-(4-phenylpiperazin-1-yl)butyl]purine-2,6-dione]",33.3%,66.6%,12.4%,87.6%,100.0%,42 ± 11,1.2,27 ± 7,0.8,10 ± 4,1.2,41 ± 9,53%,26 ± 6,strong (higher than 40%),47 ± 10,56%,70 ± 7,9%,93%,"% inhibition of NQNO mutagenicity [9, 11]: 88%; Number of revertants per plate, Mean ± SD [9, 10]: 6 ± 2; Number of revertants per plate, Mean ± SD [9, 11]: 11 ± 3"
